Test results as given in patent publication US9907791B2, “Ron inhibitors for use in preventing and treating bone loss” (UNIVERSITY OF UTAH RESEARCH FOUNDATION, priority 2014, dated 2018).

Columns and labels:
bone marrow osteoclasts [1] = experiment: Osteoclast survival assay; format: cell-based, mice; conditions: 10 μM Src inhibitor daily from day 7 for 48 hours, with MSP
Protocol: Bone marrow precursor cells were thawed and seeded at a density of 2×10^5 cells per well in a 24-well plate containing glass coverslips in α-MEM media containing 10% FBS and antibiotics. After adhering overnight, media was removed and media containing 33 ng/mL hM-CSF and 9 ng/mL muRANKL was added. Cells were allowed to differentiate for 7 days with media changed every 3 days. Coverslips were then imaged microscopically using phase contrast to determine osteoclast number in each well. To test survival, factor-containing media was removed and α-MEM media containing 10% FBS was added as well as MSP as indicated. Cells were cultured for an additional 48 hours, fixed with 10% NBF for 10 minutes and washed with 1×PBS. For TRAP fluorescent staining, the leukocyte acid phosphatase kit (Sigma, St. Louis, Mo.) was used according to the manufacturer's instructions, with the substitution of 200 μM ELF97 (Invitrogen, Waltham, Mass.) as a phosphatase substrate. Coverslips were incubated in TRAP solution for 15 minutes at 37 degrees, washed with 1×PBS and counterstained with DAPI. The number of multinucleated TRAP+ cells (containing 4 or more nuclei) within 5 representative fields were included for quantification. Experiments were performed in triplicate.

[2] = system: MSP-overexpressing MDA-MB-231 cells; experiment: Intratibial MSP-overexpressing MDA-MB-231 tumor-induced osteolysis; format: in vivo, NOD.SCID mice; conditions: treated 3 days post tumor cell injection, sacrificed 30 days
Excerpt: (§1) All procedures involving mice and experimental protocols were approved by the Institutional Animal Care and Use Committee (IACUC) of the University of Utah. The RonTK−/− mice which reside on the FVB background, were crossed with NOD.SCID mice for an immune-compromised mouse model. As a control, wild-type FVB mice were also crossed with NOD.SCID mice. The STK−/− mice, which are on a C57BL/6 background, were compared to wild-type C57BL/6 mice as controls. Mice for all experiments were 6 to 8 weeks of age. For intratibial injections, 1×10^5 (PyMTor DU4475) or 3×10^5 (MDA-MB-231) tumor cells were resuspended in 10 μL matrigel and injected into the right tibia of anesthetized female FVB (PyMT) or NOD.SCID mice carrying various alleles of RON. Osteolysis was assessed by X-ray radiography. Dissected hindlimbs from mice sacrificed at the final time point in each experiment were placed in the Kodak In-vivo Multispectral Imaging System FX and exposed to X-ray radiography at 35 kV for 100 sec. Excess tumor tissue was removed from the bones prior to X-ray. Osteolytic lesions were quantified using Image J software (NCBI). All images were compared to the contralateral leg as an internal control.
(§2) For in vivo experiments, the OSI-296 inhibitor was dissolved in 40% Trappsol with 0.01 M HCl, and mice were treated at a concentration of 200 mg/kg daily by oral gavage. […]

bone marrow osteoclasts [3] = experiment: Osteoclast resorption assay; format: cell-based, mice; conditions: WT osteoclasts, inhibitors 10 μM or muRANK-Fc 10 μg/mL daily day 9 to 12
Protocol: Bone marrow osteoclasts were generated from 6 to 8 week old WT and RonTK−/− mice. Briefly, bone marrow was isolated from hindlimb bones and plated in α-MEM media containing 10% heat-inactivated fetal bovine serum (FBS, Sigma, St. Louis, Mo.), 100 units/mL penicillin-streptomycin (Hyclone), and 33 ng/mL human macrophage colony-stimulating factor (hM-CSF) (PeproTech, Rocky Hill, N.J.) for 24 hours. Non-adherent cells were collected and frozen for later use. To assess resorption activity, bone marrow precursor cells were thawed and seeded at a density of 1×10^5 cells per well in BioCoat Osteologic slides (BD Biosciences, San Jose, Calif.) in α-MEM media containing 10% FBS and antibiotics. After adhering overnight, media was removed and media containing 33 ng/mL hM-CSF and 9 ng/mL muRANKL (R & D systems, Minneapolis, Minn.) was added. The medium was changed every 3 days depending on acidification, and the assay was terminated as indicated. Recombinant human MSP was prepared and added daily as indicated. Cells were removed with 6% bleach and slides were viewed microscopically using phase-contrast with 20× magnification. Osteolytic resorption area within 5 representative fields was determined using Image J software, experiments were performed in triplicate. […]

RON = RON (Homo sapiens, UniProt Q04912); conditions: from the cited IC50 values; cited from earlier work
PyMT-MSP tumor cells = experiment: Intratibial PyMT-MSP tumor-induced osteolysis; format: in vivo, mice
Excerpt: as §1
Hindlimb bones were excised from mice at the time of sacrifice and bones were fixed in 10% neutral-buffered formalin, decalcified in Formical-2000 (Decal Corporation, Tallman, N.Y.) for 8 days and embedded in paraffin for hematoxylin and eosin (H & E) or immunohistochemical staining. Osteoclast number was assessed as TRAP^+ multinucleated cells containing 4 or more nuclei and reported as TRAP^+ cells per field. Three sections per mouse and 5 fields per section were used for quantification with fields representing the entire length of the tibia. Tumor proliferation rate was reported as the number of cells which were positive for phospho-H3 staining compared to the number of unstained cells per field expressed as a percent. Three sections per mouse and 5 fields per section were used for quantification with analysis being restricted to within the bone marrow cavity. Immunohistochemical analysis was performed with heat-induced antigen retrieval in sodium-citrate buffer (Dako, Denmark). Primary antibodies used were anti-TRAP at 1:50 (Santa Cruz, sc-30833, Dallas, Tex.), anti-Ki67 at 1:100 (Santa Cruz, sc-12202S, Dallas, Tex.), anti-phosphoH3 at 1:100 (Cell Signaling, #9701, Beverly, Mass.), anti-NFATc1 at 1:50 (Santa Cruz, sc-13033, Dallas, Tex.), and anti-RON at 1:250 (Santa Cruz, sc-322, Dallas, Tex.). Bones from mice lacking RON were used as a negative control. Biotinylated secondary antibody was used with the EnVision^+ system HRP kit (Dako, Denmark) and nuclei counterstained with hematoxylin.
For in vivo experiments, the OSI-296 inhibitor was dissolved in 40% Trappsol with 0.01 M HCl, and mice were treated at a concentration of 200 mg/kg daily by oral gavage. Treatment began either 3 days after tumor cell injection for prophylactic experiments, or 3 weeks after tumor cell injection for therapeutic experiments. ASLAN002 was dissolved in 70% PEG400 with 1×PBS and mice were treated at a concentration of 50 mg/kg daily by oral gavage. muRANK-Fc was given at a concentration of 10 mg/kg every three days by intra-peritoneal injection. For the osteoporosis study, mice were treated beginning on the day after ovary removal. The treatment regimen for OSI-296 was 200 mg/kg every other day by oral gavage. ASLAN002 was administered at 50 mg/kg every other day by oral gavage. Treatment continued until the time of sacrifice at 28 days.

PyMT control tumor cells = experiment: Intratibial PyMT control tumor-induced osteolysis; format: in vivo, mice; conditions: WT mice, treatment began 3 days post injection, sacrificed 42 days post injection
Excerpt: as §1, §2

Sequence of RON (Q04912 25-1400): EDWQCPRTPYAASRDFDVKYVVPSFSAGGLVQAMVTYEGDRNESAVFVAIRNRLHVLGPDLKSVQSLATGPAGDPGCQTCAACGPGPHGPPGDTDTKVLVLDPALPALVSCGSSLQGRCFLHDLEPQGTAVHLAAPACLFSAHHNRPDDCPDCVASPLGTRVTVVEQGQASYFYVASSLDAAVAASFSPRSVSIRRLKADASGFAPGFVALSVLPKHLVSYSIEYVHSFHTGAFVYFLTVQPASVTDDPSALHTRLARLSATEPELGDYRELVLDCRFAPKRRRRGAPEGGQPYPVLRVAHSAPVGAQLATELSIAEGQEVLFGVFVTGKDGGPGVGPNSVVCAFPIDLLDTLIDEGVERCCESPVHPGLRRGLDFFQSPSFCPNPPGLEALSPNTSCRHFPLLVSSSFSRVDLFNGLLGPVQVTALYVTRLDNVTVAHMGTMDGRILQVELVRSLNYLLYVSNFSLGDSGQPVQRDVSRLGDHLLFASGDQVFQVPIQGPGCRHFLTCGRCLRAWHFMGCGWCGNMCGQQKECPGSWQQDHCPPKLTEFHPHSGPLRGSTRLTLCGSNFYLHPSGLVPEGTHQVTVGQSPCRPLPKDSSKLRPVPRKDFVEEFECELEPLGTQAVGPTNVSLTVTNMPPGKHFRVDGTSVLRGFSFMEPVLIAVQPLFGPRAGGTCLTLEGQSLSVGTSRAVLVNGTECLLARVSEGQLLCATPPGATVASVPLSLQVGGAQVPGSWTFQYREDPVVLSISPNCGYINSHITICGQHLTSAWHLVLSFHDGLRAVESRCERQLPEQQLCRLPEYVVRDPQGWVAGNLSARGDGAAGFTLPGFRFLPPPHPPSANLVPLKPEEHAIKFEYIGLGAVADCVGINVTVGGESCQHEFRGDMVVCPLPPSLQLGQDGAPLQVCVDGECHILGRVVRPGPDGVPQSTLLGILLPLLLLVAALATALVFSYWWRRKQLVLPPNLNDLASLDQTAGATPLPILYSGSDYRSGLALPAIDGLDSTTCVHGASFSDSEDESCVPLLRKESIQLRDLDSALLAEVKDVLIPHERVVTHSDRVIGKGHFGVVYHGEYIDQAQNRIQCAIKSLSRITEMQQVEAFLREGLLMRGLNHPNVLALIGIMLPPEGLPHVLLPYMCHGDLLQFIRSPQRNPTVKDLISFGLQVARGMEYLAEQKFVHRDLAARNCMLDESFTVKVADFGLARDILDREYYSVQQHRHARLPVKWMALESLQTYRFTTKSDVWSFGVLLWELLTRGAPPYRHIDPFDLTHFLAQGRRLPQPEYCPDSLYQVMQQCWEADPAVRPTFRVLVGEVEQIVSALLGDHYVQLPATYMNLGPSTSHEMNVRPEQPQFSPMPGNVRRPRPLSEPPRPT

| Structure (SMILES) | MSP-mediated osteoclast survival (bone marrow osteoclasts [1]) | osteolysis from MSP-expressing MDA-MB-231 tumor cells [2] | MSP-induced increase in osteoclast resorption (resorption area) (bone marrow osteoclasts [3]) | selectivity between RON and Met (RON) | inhibition of osteolysis (PyMT-MSP tumor cells; PyMT-MSP tumors, treatment beginning three days after tumor injection, average) | TRAP+ osteoclasts in tumor-bearing bones (PyMT-MSP tumor cells; TRAP staining of bone sections) | PyMT-MSP tumor growth in the bone (PyMT-MSP tumor cells; caliper measurements) | PyMT-MSP tumor proliferation rate in the bone (PyMT-MSP tumor cells; percent cells positive for phospho-H3) | progression of existing tumor-induced bone loss (PyMT-MSP tumor cells; post osteolysis treatment, about three weeks after tumor injection) | osteolysis from PyMT control tumors (no MSP) (PyMT control tumor cells) |
| --- | --- | --- | --- | --- | --- | --- | --- | --- | --- | --- |
| CN1CCN(CCOc2cc(OC3CCOCC3)c3c(Nc4c(Cl)ccc5c4OCO5)ncnc3c2)CC1 [AZD0530] | blocked MSP-mediated survival | – | – | – | – | – | – | – | – | – |
| C[C@@H](Oc1c(N)ncc2c(C3=CCN(C(N)=O)CC3)coc12)c1c(Cl)ccc(F)c1Cl [OSI-296] | – | reduce MSP-mediated osteolysis to levels seen in control tumor cells | dramatically reduced | more selective for Met | 4-6 fold | no significant effect | reduced | reduced | prevent further tumor-induced bone loss | did not have an effect |
